Data reported in BindingDB's records for doi:10.1016/j.bmcl.2008.07.123 (Bristol-Myers Squibb, 2008).

Experiment: Antagonist activity at CCR2 in human PBMC assessed as MCP1-induced chemotaxis

| SMILES | IC50 [nM] |
| --- | --- |
| CCCN1CCC(NC(=O)c2ccc(SC)cc2)C(NC(=O)CNC(=O)c2cc(N)cc(C(F)(F)F)c2)C1 (racemic) [(+/-)-3-amino-N-(2-(4-(4-(methylthio)benzamido)-1-propylpiperidin-3-ylamino)-2-oxoethyl)-5-(trifluoromethyl)benzamide] | 25 |
| CSc1ccc(CNC2CCNCC2NC(=O)CNC(=O)c2cc(C(F)(F)F)ccc2N)cc1 (racemic) [(+/-)-2-amino-N-(2-(4-(4-(methylthio)benzylamino)piperidin-3-ylamino)-2-oxoethyl)-5-(trifluoromethyl)benzamide] | 285 |
| CCCN1CCC(NCc2ccc(SC)cc2)C(NC(=O)CNC(=O)c2cc(N)cc(C(F)(F)F)c2)C1 (racemic) [(+/-)-3-amino-N-(2-(4-(4-(methylthio)benzylamino)-1-propylpiperidin-3-ylamino)-2-oxoethyl)-5-(trifluoromethyl)benzamide] | 26 |
| CCCN1CCC(NCc2ccc(SC)cc2)C(NC(=O)CNC(=O)c2cc(C(F)(F)F)ccc2NC(=O)NC)C1 (racemic) [(+/-)-N-(2-(4-(4-(methylthio)benzylamino)-1-propylpiperidin-3-ylamino)-2-oxoethyl)-2-(3-methylureido)-5-(trifluoromethyl)benzamide] | 8 |
| CSc1ccc(C(=O)NC2CCN(C)CC2NC(=O)CNC(=O)c2cc(C(F)(F)F)ccc2N)cc1 (racemic) [(+/-)-2-amino-N-(2-(1-methyl-4-(4-(methylthio)benzamido)piperidin-3-ylamino)-2-oxoethyl)-5-(trifluoromethyl)benzamide] | 38.5 |
| CSc1ccc(CNC2CCN(C)CC2NC(=O)CNC(=O)c2cc(C(F)(F)F)ccc2N)cc1 (racemic) [(+/-)-2-amino-N-(2-(1-methyl-4-(4-(methylthio)benzylamino)piperidin-3-ylamino)-2-oxoethyl)-5-(trifluoromethyl)benzamide] | 27.5 |
| CCCCN1CCC(NC(=O)c2ccc(SC)cc2)C(NC(=O)CNC(=O)c2cc(C(F)(F)F)ccc2N)C1 (racemic) [(+/-)-2-amino-N-(2-(1-butyl-4-(4-(methylthio)benzamido)piperidin-3-ylamino)-2-oxoethyl)-5-(trifluoromethyl)benzamide] | 17.5 |

Continued by falling IC50, values first:

| IC50 [nM] | SMILES |
| --- | --- |
| 19 | CCCCN1CCC(NCc2ccc(SC)cc2)C(NC(=O)CNC(=O)c2cc(C(F)(F)F)ccc2N)C1 (racemic) [(+/-)-2-amino-N-(2-(1-butyl-4-(4-(methylthio)benzylamino)piperidin-3-ylamino)-2-oxoethyl)-5-(trifluoromethyl)benzamide] |
| 5.4 | CCCN1CCC(NCc2ccc(SC)cc2)C(NC(=O)CNC(=O)c2cc(C(F)(F)F)ccc2N)C1 (racemic) [(+/-)-2-amino-N-(2-(4-(4-(methylthio)benzylamino)-1-propylpiperidin-3-ylamino)-2-oxoethyl)-5-(trifluoromethyl)benzamide] |
| 4.8 | CCCN1CCC(NCc2ccc(SC)cc2)C(NC(=O)CNC(=O)c2cc(C(F)(F)F)ccc2NC(=O)N2CCCC2)C1 (racemic) [(+/-)-N-(2-(2-(4-(4-(methylthio)benzylamino)-1-propylpiperidin-3-ylamino)-2-oxoethylcarbamoyl)-4-(trifluoromethyl)phenyl)pyrrolidine-1-carboxamide] |
